From US11642314B2, “Mixtures of branched chain keto acids (BCKA) and method for the production of such mixtures” (Evonik Operations GmbH, priority 2018, dated 2023)

assay: Water solubility at 20° C.; assay type: physicochemical; conditions: in water at 20° C.; calcium salts according to b99

Row | solubility | SMILES
1 | 11.9 to 12.5 mg/mL | CC(C)CC(=O)C(=O)O [Keto leucine]
2 | 52 to 63 mg/mL | CSCCC(O)C(=O)O (stereo not drawn) [α-hydroxymethionine]
3 | 24.3 mg/mL | CCC(C)C(=O)C(=O)O (stereo not shown) [Keto isoleucine]
4 | 65 to 70 mg/mL | CC(C)C(=O)C(=O)O [Keto valine]
